# Reference: ChEMBL document CHEMBL1123596, “5-fluoro- and 8-fluorotrimetoquinol: selective beta 2-adrenoceptor agonists” (J Med Chem, 1987)
# Counter-ions that a name gives are not always drawn.
# Legend:
# [1] = Acid dissociation constant was determined; format: ADME
# [2] = biological target: Beta-2 adrenergic receptor (Cavia porcellus) (UniProt Q8K4Z4); conditions: Trachea
# [3] = biological target: Beta-1 adrenergic receptor (Cavia porcellus) (UniProt B0FL73)
# [4] = biological target: Beta-1 adrenergic receptor (Cavia porcellus) (UniProt B0FL73); remark: listed apart in the source
# Beta-1 adrenergic receptor (Cavia porcellus), sequence (B0FL73 1-467): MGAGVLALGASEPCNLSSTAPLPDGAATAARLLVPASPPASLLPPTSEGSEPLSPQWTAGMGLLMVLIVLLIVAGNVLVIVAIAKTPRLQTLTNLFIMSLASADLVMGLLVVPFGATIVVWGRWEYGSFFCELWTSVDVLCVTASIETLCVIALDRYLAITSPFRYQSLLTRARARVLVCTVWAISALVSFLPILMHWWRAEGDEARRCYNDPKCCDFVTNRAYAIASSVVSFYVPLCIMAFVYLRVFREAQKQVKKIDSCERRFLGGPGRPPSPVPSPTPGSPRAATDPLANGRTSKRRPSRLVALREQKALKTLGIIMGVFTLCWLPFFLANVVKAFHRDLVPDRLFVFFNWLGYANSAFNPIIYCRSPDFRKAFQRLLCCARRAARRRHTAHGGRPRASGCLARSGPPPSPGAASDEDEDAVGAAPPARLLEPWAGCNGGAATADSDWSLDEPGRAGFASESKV
# Beta-2 adrenergic receptor (Cavia porcellus), sequence (Q8K4Z4 whole entry, looked up): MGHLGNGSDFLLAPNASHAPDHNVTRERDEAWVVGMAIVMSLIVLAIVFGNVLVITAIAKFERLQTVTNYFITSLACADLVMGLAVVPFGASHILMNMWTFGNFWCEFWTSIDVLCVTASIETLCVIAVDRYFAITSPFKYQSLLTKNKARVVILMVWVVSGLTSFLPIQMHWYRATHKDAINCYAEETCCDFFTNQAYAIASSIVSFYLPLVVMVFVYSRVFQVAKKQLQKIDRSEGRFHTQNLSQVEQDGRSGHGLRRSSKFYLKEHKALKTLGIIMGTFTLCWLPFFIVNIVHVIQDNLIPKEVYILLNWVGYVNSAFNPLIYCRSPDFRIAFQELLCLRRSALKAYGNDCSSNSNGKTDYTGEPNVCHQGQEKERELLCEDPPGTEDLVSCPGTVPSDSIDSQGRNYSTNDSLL
SMILES,pKa [1],IAR [2],IAR [3],pD2 [4]
COc1cc(CC2NCCc3c2cc(O)c(O)c3F)cc(OC)c1OC (stereo not drawn),8.11,0.95,0.96,
COc1cc(CC2NCCc3cc(O)c(O)c(F)c32)cc(OC)c1OC (stereo not drawn),7.86,,,
COc1cc(CC2NCCc3cc(O)c(O)cc32)cc(OC)c1OC (stereo not drawn) [TRETOQUINOL HYDROCHLORIDE],8.77,0.95,1,7.52
